Experiments:
K562 [1] = assay: Cytotoxicity against Homo sapiens (human) K562 cells at 50 uM after 24 hr by MTT assay; assay type: functional
K562 [2] = assay: Cytotoxicity against Homo sapiens (human) K562 cells assessed as inhibition of cell proliferation after 24 hr by MTT assay; assay type: functional, cell-based; conditions: K562, 24 h
MCF7 [3] = assay: cells; conditions: Homo sapiens, MCF7, 24 h
Description: Cytotoxicity against Homo sapiens (human) MCF7 cells assessed as inhibition of cell proliferation after 24 hr by MTT assay

MCF7 [4] = assay: Cytotoxicity against Homo sapiens (human) MCF7 cells at 50 uM after 24 hr by MTT assay; assay type: functional

IC50 (MCF7 [3])	SMILES	Activity (K562 [1])	IC50 (K562 [2])	Activity (MCF7 [4])
10.1 µM	Clc1ccc(C2=NOC(c3ccc(Cl)cc3)N2c2ccccc2)cc1 (centres undefined)	>50%	22.2 µM	>50%
23.7 µM	Clc1ccc(C2=NOC(c3ccccc3)N2c2ccccc2)cc1 (centres undefined)	>50%	97 µM	>50%
6.5 µM	Fc1ccc(C2ON=C(c3ccc(Cl)cc3)N2c2ccccc2)cc1 (centres undefined)	>50%	21.7 µM	>50%
	CC(=O)O[C@H]1C(=O)[C@@]2(C)[C@H]([C@H](OC(=O)c3ccccc3)[C@]3(O)C[C@H](OC(=O)[C@H](O)[C@@H](NC(=O)c4ccccc4)c4ccccc4)C(C)=C1C3(C)C)[C@]1(OC(C)=O)CO[C@@H]1C[C@@H]2O [PACLITAXEL]		> 100 µM	
22.6 µM	Clc1ccc(C2=NOC(c3ccc(Cl)cc3)N2c2ccc(Cl)cc2)cc1 (centres undefined)	>50%	51.2 µM	>50%
> 100 µM	COc1cccc2c1C(=O)c1c(O)c3c(c(O)c1C2=O)C[C@@](O)(C(=O)CO)C[C@@H]3O[C@H]1C[C@H](N)[C@H](O)[C@H](C)O1 [DOXORUBICIN]		4.49 µM	

— ChEMBL document CHEMBL3046060, “Synthesis, molecular docking study, and anticancer activity of triaryl-1,2,4-oxadiazole” (Med Chem Res, 2013)
